Assay results as given in a melting point compilation (Tetko et al.).

SMILES | melting point [°C]
Cc1ccc2oc(C(=O)O)c(C)c2c1 | 180 to 182
NNC(=O)CC(F)(F)F | 90 to 92
FC(F)(F)Cn1c(S)nnc1N1CCOCC1 | 175 to 177
O=C1C(=O)N(Cc2ncon2)c2ccc(Br)cc21 | 197 to 199
CC(C)C(Br)C(=O)Nc1ccc2c(c1)CCC2 (configuration not stated) | 124 to 126
CSc1nc(C)cc(C(=O)O)n1 | 152 to 154
Cn1cc(Nc2ccc(=O)n(C)c2)ccc1=O | 270 to 272
CCOC(OCC)c1cc(-c2cccc(F)c2)[nH]n1 | 82 to 84
FC(F)(F)Cn1cnnc1S | 93 to 95
CS(=O)(=O)c1ccc2c(c1)NCCO2 | 117 to 119
Nc1cc2c(cc1Br)NC(=O)CO2 | 209 to 211
CCc1cccc(CC(=O)O)c1 | 58 to 60
Cc1ccc(C)c(S(=O)(=O)N2CCN(C(=O)CCC(=O)O)CC2)c1 | 143 to 145
CC1CN(S(=O)(=O)Cl)CC(C)O1 (configuration not stated) | 74 to 76
O=C(O)C1CCN(Cc2ccc(Cl)s2)CC1 | 173 to 175
O=C(O)c1ccccc1NS(=O)(=O)C(F)(F)F | 164 to 166
CCCC(NC(=O)NCc1ccc(Br)cc1)C(=O)O (configuration not stated) | 160 to 162
CN(CC(=O)NC1CC1)C(=O)CCl | 113 to 115
Cc1noc(C)c1S(=O)(=O)NCC(=O)O | 113 to 115
CC(C(=O)O)c1ccc(Cl)c(Cl)c1 (configuration not stated) | 39 to 41
NC(=O)CC1CC2CCC1C2 (configuration not stated) | 152 to 154
O=C(O)CCS(=O)(=O)C1CCCC1 | 98 to 100
CCc1c(C(=O)O)cnn1C | 144 to 146
O=C(O)CNc1ccccc1[N+](=O)[O-] | 80 to 82

SMILES | melting point [°C]
O=C1CCc2cc(C(=O)CCl)ccc2N1 | 212 to 214
COc1cc(NC(=O)c2ccco2)c(C(=O)O)cc1OC | 88 to 90
NC(=O)CC1CCCC1 | 149 to 151
O=C(O)c1ccc(Oc2ccc(Cl)cc2)c(Cl)c1 | 167 to 169
COc1ccc(-c2csc(C)n2)cc1 | 55 to 57
CCc1ccc(-c2csc(N)n2)s1 | 92 to 94
CC(C)(C(=O)O)c1ccc(Cl)c(Cl)c1 | 94 to 96
O=C(O)C1CCCCN1c1ncccn1 (configuration not stated) | 156 to 158
Nc1ccc(-c2noc(=O)[nH]2)cc1 | 198 to 200
Cc1ccc(OCc2ccc(C(=O)O)o2)cc1 | 204 to 206
NC(=O)c1cc(-c2ccccc2)sc1N | 200 to 210
NCc1ccccc1NS(=O)(=O)c1ccccc1 | 188 to 190
N#CC1=C(N)CCC1 | 146 to 148
NC(=O)Nc1cccc(C(=O)O)c1 | 269 to 271
O=c1cc(CCl)nc2ccc(Br)cn12 | 172 to 174
CCC(=O)Nc1cccc(C#N)c1 | 84 to 86
Cc1ccc(NC(=O)C(=O)NN)cc1C | 182 to 184
O=C(O)C1CCCN(C(=O)c2ccccn2)C1 (configuration not stated) | 167 to 169
O=C(O)c1cc(/C=C/c2ccc(F)cc2)nc2ccc(Br)cc12 | 299 to 301
COc1ccc(-n2c(C)c(C)c3c(N)ncnc32)cc1 | 231 to 233
O=C(O)CCNS(=O)(=O)c1cccnc1Cl | 174 to 176
Cc1n[nH]c(C)c1S(=O)(=O)N1CCN(C)CC1 | 187 to 189
O=C(c1c[nH]c(=O)[nH]1)N1CCNCC1 | 269 to 271
CCC1(C)CCNC(=O)CC1 (configuration not stated) | 76 to 78

SMILES | melting point [°C]
Nc1ccn(Cc2cn3ccccc3n2)n1 | 144 to 146
Brc1ccc(OCC2CO2)cc1 (configuration not stated) | 49 to 51
COc1ccc(-c2csc3nc(C)[nH]c(=O)c23)cc1OC | 249 to 251
O=C1Nc2ccc(-c3ccccc3)cc2C1=O | 214 to 216
CC1CN(S(=O)(=O)c2ccc(NC(=O)CCl)cc2)CC(C)O1 (configuration not stated) | 110 to 112
NC(=O)c1cncc(Cl)n1 | 166 to 168
O=c1c2cc(Cl)cc(Cl)c2nc2n1CCC2 | 245 to 247
CCCCCCC(NC)C(=O)O (configuration not stated) | 259 to 261
COC(=O)C[C@H](NC(=O)OCC1c2ccccc2-c2ccccc21)C(=O)O | 115 to 117
O=C(O)CCC(=O)c1ccc2c(c1)CCCC2 | 122 to 124
Cc1nn(-c2ccccc2)c(C(F)(F)Cl)c1C(=O)O | 144 to 146
C#CCN1C(=O)C(=O)c2ccccc21 | 153 to 155
CCOCc1nnc(N)o1 | 118 to 120
COc1ccc(CCl)cc1Br | 45 to 51
Cc1nc2cc(Cl)ccc2c(=O)n1N | 202 to 204
Nc1cccc(-c2ccc(=O)[nH]n2)c1 | 206 to 208
Cc1c(Cl)cc(S(=O)(=O)Cl)cc1[N+](=O)[O-] | 60 to 62
O=C(Nc1ccccc1)C1CCc2ccccc2N1 (configuration not stated) | 124 to 126
CC(N)c1ccc(NC(N)=O)cc1 (configuration not stated) | 132 to 134
CC(=O)CC(=O)c1cnn(C)c1 | 88 to 90
O=C(O)Cc1cc2c(cc1Br)OCCO2 | 220 to 222
O=C(O)C1CC12CCOc1ccccc12 (configuration not stated) | 159 to 161
NC(=O)CNS(=O)(=O)c1cccc(C(=O)O)c1 | 259 to 261
[N-]=[N+]=Nc1ccnc(CO)c1 | 59 to 61
